Experimental data published in patent US20050288213A1, “Combination therapy for the treatment of obesity” (priority 2002, published 2005).
“Also recorded” adds a separate entry of the source.

Key:
[1] = tested on: diet induced obese (DIO) mice; test: In vivo pair-feeding study with a NPY5 antagonist; parameters: species or system Male C57BL/6J mice
Experimental: Compound A, is an orally active, selective NPY5 antagonist (Kanatani et al., 2000, Biochem. Biophys. Research Comm. 272:169-173). Male C57BL/6J mice (CLEA Japan Inc., 16 months old at the beginning of the drug administration) were used. Mice were given water and regular pellet chow (CE-2, CLEA Japan Inc.) ad libitum. They were kept in an animal room which was maintained at 23±2° C. temperature, 55±15% relative humidity and on a 12-hr light-dark cycle (7:00-19:00) during a quarantine and acclimatization period of 1 week.
Before the start of drug administration, mice were fed a MB diet (Oriental BioService Co., Tokyo, Japan) for about 9 to 10 months until the body weight gain reached plateau. After the body weight gain reached a plateau, the diet was change to a powder MHF diet. The powder MEW diet was given by powder feeder (small dishes). Diet and dishes were changed everyday, and daily food intake was measured. During this period, animals were orally administered vehicle (0.5% methylcellulose in distilled water) by gavage once-daily. After stable feeding was observed, the amount of new food was adjusted to daily food intake+0.3 g, to minimize the amount of spilled food. After the acclimation period, the MB diet-fed mice were divided into three groups to match average values of body weight (initial average body weight was 48 to 49 g). Each group was orally administered either vehicle or compound A at a dose of 100 mg/kg once-daily for 1 month, or vehicle by gavage. Food and body weight were measured. The administration was done one and half hours before the beginning of the dark period following the body weight measurement. Four days after drug administration, the pair-feeding was started. The pair-fed amount of food was calculated from the following equations: Average F.I. inhibition of drug treated group (%)=(average F.I. from control group−average F.I. from drug treated group)/average F.I. from control group×100 Pair fed amount of food for each animal=each animal's average F.I. from pre period×(1−average F.I. inhibition of drug treated group (%)) Pair fed mice were given a diet calculated from above inhibition and pre-average F.I. value. The amount of food was divided to two meals and given around at 8:00 and 18:00 to avoid a long duration of fasting. Rectal temperature was measured at 13:00-14:00 by insertion of thermo-probe in the rectum, at the 14, 22, 29, 34th day (10, 18, 25, 30th day for pair-fed group) after the start of treatment. Results

[2] = tested on: diet induced obese (DIO) mice; test: In vivo study of a combination of a NPY5 antagonist and food restriction; parameters: species or system Male C57BL/6J mice
Experimental: Male C57BL/6J mice (CLEA Japan Inc., 14 months old at the beginning of the drug administration) were used. Mice were given water and a regular pellet chow (CE-2, CLEA Japan Inc.) ad libitum. They were kept in an animal room which was maintained at 23±2° C. temperature, 55±15% relative humidity and on a 12-hr light-dark cycle (7:00-19:00) during a quarantine and acclimatization period of 1 week. Before the start of drug administration, mice were fed a MHF diet (Oriental BioService Co., Tokyo, Japan) for about 9 to 10 months until the body weight gain reached a plateau. After the body weight gain reached a plateau, the diet was changed to a powder MHF diet. The powder MHF diet was given by powder feeder (small dishes). Diet and dishes were changed everyday, and the daily food intake was measured. During this period, animals were orally administered vehicle (0.5% methylcellulose in distilled water) by gavage twice-daily. After stable feeding was observed, the amount of new food was adjusted to daily food intake+0.3 g, to minimize the amount of spilled food. After the acclimation period, the […] mice were divided into four groups to match the average values of body weight (initial average body weight was 49 to 51 g) and food intake (n=7-10). Two of the groups were orally administered either vehicle or compound B at a dose of 30 mg/kg twice-daily for 1.5 months by gavage, respectively. Another two groups were treated with vehicle or compound B and given 90% of the average baseline food intake of the each mouse during the acclimation period (10% food restriction). The administration was done one and half hours before the beginning of the dark period following body weight measurement and one and half hours after the beginning of the light period. The amount of food was divided into two meals and given around at 8:00 and 18:00 to avoid a long duration of fasting. Food and body weight were measured.

Row | SMILES | food consumed, less than untreated controls ([1]; DIO mice chronically treated) | body weight ([1]; DIO mice, 100 mg/kg once-daily P.O., 30 day treatment) | food intake ([1]; DIO mice, 100 mg/kg once-daily P.O., throughout the treatment period) | rectal temperature ([1]; DIO mice, 100 mg/kg once-daily P.O., compared with control and pair-fed group, 100 mg/kg) | inhibition at 100 mg/kg ([1]; Mus musculus, po, DIO mice, 100 mg/kg once-daily P.O., 1 month, read-out: Inhibitory percentage of cumulative food intake) | body weight, combination with 10% food restriction ([2]; 30 mg/kg twice-daily P.O. plus 10% food restriction, compared with either treatment alone, 30 mg/kg) | food intake ([2]; 30 mg/kg twice-daily P.O., throughout the treatment period) | inhibition at 30 mg/kg ([2]; Mus musculus, po, 30 mg/kg twice-daily P.O., 1.5 months, read-out: Inhibitory percentage of cumulative food intake) | body weight ([2]; non food restricted, 30 mg/kg twice-daily P.O., 49 day treatment)
1 | CC1(C)CC(=O)C(C2C3=C(CC(C)(C)CC3=O)Oc3ccccc32)C(=O)C1 (stereo not drawn) [Compound A] | about 10% | significantly reduced body weight | mildly reduced food intake | almost the same as that in the control group; also recorded: drop in body temperature was prevented | 12.5% |  |  |  | 
2 | O=C1OC2(CCN(C(=O)Nc3cnc(-c4ccccc4)cn3)CC2)c2ccccc21 [Compound B, 3-oxo-N-(5-phenyl-2-pyrazinyl)-spiro[isobenzofuran-1(3H),4′-piperidine]-1′-carboxamide] |  |  |  |  |  | decreased weight than either treatment alone; also recorded: lose more weight than food restriction alone | mildly reduced food intake | 6% | significantly reduced body weight
